In patent US20250295693A1, “HYBRID TUMOR/CANCER THERAPY BASED ON TARGETING THE RESOLUTION OF OR INDUCING TRANSCRIPTION-REPLICATION CONFLICTS (TRCS)” (Julius-Maximilians-Universität Würzburg, priority 2021, published 2025):
“Also recorded” adds a separate entry of the source.

How the values were obtained:
pancreas carcinoma cells = experiment: Microscopy-based siRNA screen for DNA damage in pancreas carcinoma cells; type: cell-based; settings: siRNA hits, low concentration of ATR inhibitor
Text: FIG. 1. […] Similar assays (not shown) establish that CDK12 acts downstream of PAF1 in this pathway. e: DNA damage and colony assays in response to combined inhibition of CDK12 and ATR.
Targeting the mechanisms that resolve TRCs is considered a viable strategy to inflict tumor cell-specific DNA damage and/or to sensitize tumors to immune cell-mediated killing. Several of the mechanisms described herein appear to be specific for MYCN-driven tumors. For example, (c-)MYC (herein also just “MYC”) binds only very weakly to Aurora-A (Dauch, Nat Med 22, 2016, 744-53). Therefore, pathways have been identified that resolve TRCs in models of MYC driven tumors, which encompasses the vast majority of all tumors. Specifically, there was a focus on conflicts in a cell line established from the KPC model of pancreas carcinoma (Hingorani, loc.cit.). This reflects human PDAC. In this model, an siRNA screen of 86 candidate genes was performed using several parallel microscope-based assays to measure the occurrence of TRCs (FIG. 1).

[1] = target: Aurora-A alleles, T217D and T217E (Homo sapiens, UniProt O14965, T217D); settings: cited from earlier work
human CRC cell lines = experiment: Colony assays of CRC cells in culture; type: cell-based; settings: low concentrations of CX-5461 combined with ATR inhibitor (AZD6738); p53-independent
Text: (§1) Deregulation of the WNT pathway in CRC not only deregulates transcription by RNAPII, but also by RNA polymerase I, which transcribes ribosomal RNAs in the nucleolus; this leads to enhanced synthesis of ribosomal RNA (Morral, Cell stem cell 26, 2020, 845-61). This is mediated by a beta-catenin dependent upregulation of multiple components of the ribosomal RNA synthesis machinery (FIG. 4a). Further to these observations, the effect of CX-5461, an inhibitor of RNA polymerase I transcription on the growth of CRC metastases, was analyzed. […] This observation was confirmed. […] Since there is an ongoing debate on the primary mechanism of CX-5461 action (Bruno, PNAS 117, 2020, 4053-60; Sanij, Nat Commun 11, 2020, 2641; Xu, Nat Commun 8, 2017, 14432), genetic work to validate its precise mechanism of action, and to further confirm that combining POL1 and ATR inhibition is a valid strategy to induce TRCs, is performed.

murine CRC organoids = experiment: Growth of CRC organoids, CX-5461 plus ATR inhibitor; type: cell-based; settings: low concentrations of CX-5461 combined with ATR inhibitor (AZD6738)
Text: as §1

RPA194 and RAD9 = experiment: Proximity ligation assays for RPA194 and RAD9; type: cell-based
Text: as §1

phosphoKap1 = experiment: EdU incorporation/Hoechst plots with phosphoKap1 staining (DNA damage in S-phase); type: cell-based; settings: b279: in conjunction with ATR inhibition
Text: as §1

CDK12 kinase = settings: cited from earlier work
[2] = system: human LS174 colo-rectal tumor cells; experiment: Extracellular acidification rate (lactate secretion), Seahorse XF96; type: cell-based
MYC protein = experiment: Immunoblot of MYC protein in human tumor cells; type: cell-based; settings: 24 h treatment
Protocol: FIG. 14. […] A: Immunoblot of tumor cells after 24 h treatment with Cymarin. B: Quantification of MYC protein levels in human pancreatic tumor cells and colorectal tumor cells.
(§2) After treatment for 24 h, cells were harvested in RIPA buffer containing protease and phosphatase inhibitor cocktails. The protein concentration was determined using BCA or Bradford assay. 15 μg of protein was loaded on a 10% SDS gel. After electrophoresis, proteins were transferred to 0.45 μm PVDF membrane and incubated with primary antibodies at 4° C. overnight. The signal was detected using peroxidase-conjugated species-specific secondary antibodies and visualized at LAS-4000 Luminescent Image Analyzer (Fujifilm).
An immunoblot of tumor cells after 24 h treatment with cymarin was made (FIG. 14A). Quantification of MYC protein levels in human pancreatic tumor cells and colorectal tumor cells was performed (FIG. 14B).

MYC = MYC expression in cells with ectopic expression of murine ATP1A1; type: cell-based
Protocol: FIG. 15. The effect of CG on MYC protein levels is mediated by inhibition of the NA/K pump. A: Depletion of the ATP1A1 subunit of the NA/K pump leads to the reduction of MYC protein levels. B: Ectopic expression of murine ATP1A1 renders the expression of MYC insensitive from the addition of cymarin, a prototypical KG.
as §2
Further, it was shown that the depletion of the ATP1A1 subunit of the NA/K pump leads to the reduction of MYC protein levels (FIG. 15A).

Aurora-A alleles, T217D and T217E, sequence (O14965 whole entry T217D): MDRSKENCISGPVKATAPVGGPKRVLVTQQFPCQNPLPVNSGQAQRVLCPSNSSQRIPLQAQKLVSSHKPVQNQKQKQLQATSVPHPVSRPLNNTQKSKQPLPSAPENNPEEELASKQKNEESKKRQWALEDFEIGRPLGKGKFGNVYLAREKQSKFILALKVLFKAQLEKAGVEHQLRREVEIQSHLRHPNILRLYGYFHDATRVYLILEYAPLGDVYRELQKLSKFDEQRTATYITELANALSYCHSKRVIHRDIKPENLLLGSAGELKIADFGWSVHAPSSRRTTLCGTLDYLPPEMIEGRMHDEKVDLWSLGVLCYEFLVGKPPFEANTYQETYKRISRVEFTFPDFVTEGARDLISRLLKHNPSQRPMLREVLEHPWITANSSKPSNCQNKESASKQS

SMILES: C[C@@H]1COCCN1c1cc(C2([S@](C)(=N)=O)CC2)nc(-c2cc[nH]c3nccc2-3)n1 [AZD6738]
- DNA damage (pancreas carcinoma cells): strongly increased DNA damage

SMILES: COc1cc(Nc2ncc3c(n2)-c2ccc(Cl)cc2C(c2c(F)cccc2OC)=NC3)ccc1C(=O)O [Alisertib]
- resistance of cells [1]: resistant

SMILES: Cc1cnc(CNC(=O)c2c(=O)c3ccc(N4CCCN(C)CC4)nc3n3c2sc2ccccc23)cn1 [CX-5461]
- colony formation (human CRC cell lines): suppression of growth; also recorded: almost completely suppressed
- colony formation / growth of organoids (murine CRC organoids): suppression of growth; also recorded: almost completely suppressed
- conflicts with DNA replication: proximity between RPA194 and RAD9 (RPA194 and RAD9): increased proximity
- DNA damage during DNA replication (S-phase) (phosphoKap1): induction of DNA damage; also recorded: massive DNA damage

SMILES: Cn1cc(-n2cnc3c(NCc4nc5cc(Cl)c(Cl)cc5[nH]4)nc(N4CCOCC4)nc32)cn1 [SR4835]
- inhibition of the CDK12 kinase (CDK12 kinase): specific and potent inhibitor

SMILES: CO[C@H]1C[C@H](O[C@H]2CC[C@]3(C=O)[C@H]4CC[C@]5(C)[C@@H](C6=CC(=O)OC6)CC[C@]5(O)[C@@H]4CC[C@]3(O)C2)O[C@H](C)[C@H]1O [cymarin, Cymarin]
- extracellular acidification rate (lactate secretion) ([2]; LS174 cells): significantly reduced
- effect on extracellular acidification rate ([2]; overexpression of the murine 1 isoform of Na+/K+-ATPase): can be reduced
- amount of MYC protein (MYC protein): reduce the amount of MYC protein
- expression of MYC on addition of cymarin (MYC): insensitive
